pEC50: −log10 of the molar value.

Consider 1 compound from doi:10.1101/2025.03.24.645127v1 (biorxiv, 2025).

The target of this experiment is T1, GPR119 (Homo sapiens, UniProt Q8TDV5).
T1 sequence (Q8TDV5 1-335): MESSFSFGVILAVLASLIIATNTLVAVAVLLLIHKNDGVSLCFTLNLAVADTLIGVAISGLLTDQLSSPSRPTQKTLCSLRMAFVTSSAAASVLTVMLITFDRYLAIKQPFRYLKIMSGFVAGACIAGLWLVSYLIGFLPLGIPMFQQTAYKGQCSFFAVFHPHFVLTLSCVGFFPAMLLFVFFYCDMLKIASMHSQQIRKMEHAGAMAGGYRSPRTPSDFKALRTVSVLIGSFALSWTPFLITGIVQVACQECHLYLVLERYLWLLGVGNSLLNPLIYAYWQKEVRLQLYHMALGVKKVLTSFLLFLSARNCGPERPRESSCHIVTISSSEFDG
As to the kind of experiment: cAMP GloSensor assay in CHO-K1. Format: cell-based.

With `COC(=O)N[C@H](C(=O)N[C@@H](Cc1ccccc1)[C@@H](O)CN(Cc1ccc(-c2ccccn2)cc1)NC(=O)[C@@H](NC(=O)OC)C(C)(C)C)C(C)(C)C` [atazanavir], the pEC50 was ~5.52.
